Measured values reported in ChEMBL document CHEMBL4387740, “Discovery of ABT-957: 1-Benzyl-5-oxopyrrolidine-2-carboxamides as selective calpain inhibitors with enhanced metabolic stability” (Bioorg Med Chem Lett, 2019).
Calls of active or inactive are those of the source. The rule behind the calls is not given here.

What was measured:
[1] = Apparent permeability in human Caco2 cells; type: ADME, cell-based; details: Caco-2, read-out: permeability
[2] = Elimination half life in cynomolgus monkey at 1 mg/kg, iv; type: ADME, organism-based, Macaca fascicularis; details: in vivo, read-out: beta t1/2 (converted)
[3] = Cmax in Beagle dog at 1 mg/kg, po; type: ADME, organism-based, Canis lupus familiaris; set-up: dose 1 mg/kg, route oral; details: in vivo
[4] = AUC (0 to infinity) in cynomolgus monkey at 3 mg/kg, po; type: ADME, organism-based, Macaca fascicularis; set-up: dose 3 mg/kg, time infinity, route oral; details: in vivo
[5] = Metabolic stability in human liver cytosol assessed as hydroxyamide metabolite formation; type: ADME, subcellular
[6] = AUC (0 to infinity) in Sprague-Dawley rat at 2 mg/kg, po; type: ADME, organism-based; set-up: dose 2 mg/kg, time infinity, route oral; details: in vivo
[7] = Oral bioavailability in Beagle dog at 1 mg/kg; type: ADME, organism-based, Canis lupus familiaris; details: in vivo
[8] = Metabolic stability in dog liver microsomes; type: ADME, Canis lupus familiaris, Microsome
[9] = Intrinsic clearance in rat liver microsomes; details: read-out: CLH
[10] = Oral bioavailability in CD-1 mouse at 2 mg/kg; type: ADME, organism-based; details: in vivo
[11] = AUC (0 to infinity) in cynomolgus monkey at 1 mg/kg, iv; type: ADME, organism-based, Macaca fascicularis; set-up: dose 1 mg/kg, time infinity, route intravenous; details: in vivo
[12] = Metabolic stability in dog hepatocytes; type: ADME, cell-based, Canis lupus familiaris, Hepatocyte
[13] = molecular target: T1, BCRP (ABCG2) (Homo sapiens, UniProt Q9UNQ0); assay: Substrate activity at BCRP (unknown origin) expressed in MDCK2 cells assessed as efflux ratio of permeability across basolateral to apical over apical to basolateral side; type: ADME, cell-based
T1 sequence (Q9UNQ0 whole entry): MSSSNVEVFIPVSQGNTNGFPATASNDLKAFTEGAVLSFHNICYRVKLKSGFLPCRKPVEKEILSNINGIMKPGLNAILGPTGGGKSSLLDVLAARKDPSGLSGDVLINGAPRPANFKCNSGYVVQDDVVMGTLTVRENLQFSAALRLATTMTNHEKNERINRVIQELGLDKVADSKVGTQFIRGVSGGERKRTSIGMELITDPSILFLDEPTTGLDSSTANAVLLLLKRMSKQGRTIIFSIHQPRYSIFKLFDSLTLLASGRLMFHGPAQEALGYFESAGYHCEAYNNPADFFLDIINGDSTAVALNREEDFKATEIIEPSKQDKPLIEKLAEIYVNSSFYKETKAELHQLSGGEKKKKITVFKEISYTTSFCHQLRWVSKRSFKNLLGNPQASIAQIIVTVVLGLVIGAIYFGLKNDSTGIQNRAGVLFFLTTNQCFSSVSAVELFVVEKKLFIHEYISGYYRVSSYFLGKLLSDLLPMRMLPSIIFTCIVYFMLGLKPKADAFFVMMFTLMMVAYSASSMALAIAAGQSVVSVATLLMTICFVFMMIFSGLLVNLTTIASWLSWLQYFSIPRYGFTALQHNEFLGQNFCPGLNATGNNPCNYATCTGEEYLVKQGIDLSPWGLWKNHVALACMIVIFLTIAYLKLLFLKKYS

[14] = Cmax in Sprague-Dawley rat at 2 mg/kg, po; type: ADME, organism-based; set-up: dose 2 mg/kg, route oral; details: in vivo
[15] = AUC (0 to infinity) in CD-1 mouse at 2 mg/kg, iv; type: ADME, organism-based; set-up: dose 2 mg/kg, route intravenous, time infinity; details: in vivo
[16] = AUC (0 to infinity) in CD-1 mouse at 2 mg/kg, po; type: ADME, organism-based; set-up: dose 2 mg/kg, route oral, time infinity; details: in vivo
[17] = Oral bioavailability in cynomolgus monkey at 3 mg/kg; type: ADME, organism-based, Macaca fascicularis; details: in vivo
[18] = Elimination half life in Beagle dog at 1 mg/kg, po; type: ADME, organism-based, Canis lupus familiaris; details: in vivo, read-out: beta t1/2 (converted)
[19] = species: Homo sapiens; assay: Selectivity ratio, ratio of Ki for CatK (unknown origin) to Ki for Cal1 (unknown origin)
[20] = AUC (0 to infinity) in Sprague-Dawley rat at 2 mg/kg, iv; type: ADME, organism-based; set-up: dose 2 mg/kg, time infinity, route intravenous; details: in vivo
[21] = Metabolic stability in cynomolgus monkey liver cytosol assessed as hydroxyamide metabolite formation; type: ADME, subcellular, Macaca fascicularis
[22] = Elimination half life in Beagle dog at 1 mg/kg, iv; type: ADME, organism-based, Canis lupus familiaris; details: in vivo, read-out: beta t1/2 (converted)
[23] = Plasma clearance in cynomolgus monkey at 1 mg/kg, iv; type: ADME, organism-based, Macaca fascicularis
[24] = Metabolic stability in rat hepatocytes; type: ADME, cell-based, Hepatocyte
[25] = Cmax in cynomolgus monkey at 3 mg/kg, po; type: ADME, organism-based, Macaca fascicularis; set-up: dose 3 mg/kg, route oral; details: in vivo
[26] = Elimination half life in CD-1 mouse at 2 mg/kg, po; type: ADME, organism-based; details: in vivo, read-out: beta t1/2 (converted)
[27] = Elimination half life in CD-1 mouse at 2 mg/kg, iv; type: ADME, organism-based; details: in vivo, read-out: beta t1/2 (converted)
[28] = Plasma clearance in Beagle dog at 1 mg/kg, iv; type: ADME, organism-based, Canis lupus familiaris
[29] = AUC (0 to infinity) in Beagle dog at 1 mg/kg, po; type: ADME, organism-based, Canis lupus familiaris; set-up: dose 1 mg/kg, time infinity, route oral; details: in vivo
[30] = Elimination half life in Sprague-Dawley rat at 2 mg/kg, iv; type: ADME, organism-based; details: in vivo, read-out: beta t1/2 (converted)
[31] = Intrinsic clearance in human liver microsomes; type: ADME, Microsome; details: read-out: CLH
[32] = Plasma clearance in Sprague-Dawley rat at 2 mg/kg, iv; type: ADME, organism-based
[33] = Metabolic stability in cynomolgus monkey hepatocytes; type: ADME, cell-based, Macaca fascicularis, Hepatocyte
[34] = Elimination half life in Sprague-Dawley rat at 2 mg/kg, po; type: ADME, organism-based; details: in vivo, read-out: beta t1/2 (converted)
[35] = Volume of distribution at steady state in Beagle dog at 1 mg/kg, iv; type: ADME, organism-based, Canis lupus familiaris; details: in vivo, read-out: Vdss
[36] = Metabolic stability in human hepatocytes; type: ADME, cell-based, Hepatocyte
[37] = Fraction unbound in human plasma; type: ADME, cell-free
[38] = AUC (0 to infinity) in Beagle dog at 1 mg/kg, iv; type: ADME, organism-based, Canis lupus familiaris; set-up: dose 1 mg/kg, time infinity, route intravenous; details: in vivo
[39] = Oral bioavailability in Sprague-Dawley rat at 2 mg/kg; type: ADME, organism-based; details: in vivo
[40] = test system: Hippocampus; assay: Inhibition of NMDA-induced spectrin degradation in rat hippocampal slices; type: functional, tissue-based
[41] = Metabolic stability in rat liver microsomes; type: ADME, Microsome
[42] = Intrinsic clearance in rat liver microsomes; type: ADME, Microsome; details: read-out: CLH
[43] = Metabolic stability in cynomolgus monkey liver microsomes; type: ADME, Macaca fascicularis, Microsome
[44] = Metabolic stability in human liver microsomes; type: ADME, Microsome
[45] = Intrinsic clearance in human liver cytosol; type: ADME, subcellular; details: read-out: CLH
[46] = Volume of distribution at steady state in CD-1 mouse at 2 mg/kg, iv; type: ADME, organism-based; details: in vivo, read-out: Vdss
[47] = Cmax in CD-1 mouse at 2 mg/kg, po; type: ADME, organism-based; set-up: dose 2 mg/kg, route oral; details: in vivo
[48] = Volume of distribution at steady state in cynomolgus monkey at 1 mg/kg, iv; type: ADME, organism-based, Macaca fascicularis; details: in vivo, read-out: Vdss
[49] = molecular target: P-gp (ABCB1) (Homo sapiens, UniProt P08183); assay: Substrate activity at P-gp (unknown origin) expressed in MDCK2 cells assessed as efflux ratio of permeability across basolateral to apical over apical to basolateral side; type: ADME, cell-based; details: MDCK-MDR1
Sequence of P-gp (ABCB1) (P08183 whole entry): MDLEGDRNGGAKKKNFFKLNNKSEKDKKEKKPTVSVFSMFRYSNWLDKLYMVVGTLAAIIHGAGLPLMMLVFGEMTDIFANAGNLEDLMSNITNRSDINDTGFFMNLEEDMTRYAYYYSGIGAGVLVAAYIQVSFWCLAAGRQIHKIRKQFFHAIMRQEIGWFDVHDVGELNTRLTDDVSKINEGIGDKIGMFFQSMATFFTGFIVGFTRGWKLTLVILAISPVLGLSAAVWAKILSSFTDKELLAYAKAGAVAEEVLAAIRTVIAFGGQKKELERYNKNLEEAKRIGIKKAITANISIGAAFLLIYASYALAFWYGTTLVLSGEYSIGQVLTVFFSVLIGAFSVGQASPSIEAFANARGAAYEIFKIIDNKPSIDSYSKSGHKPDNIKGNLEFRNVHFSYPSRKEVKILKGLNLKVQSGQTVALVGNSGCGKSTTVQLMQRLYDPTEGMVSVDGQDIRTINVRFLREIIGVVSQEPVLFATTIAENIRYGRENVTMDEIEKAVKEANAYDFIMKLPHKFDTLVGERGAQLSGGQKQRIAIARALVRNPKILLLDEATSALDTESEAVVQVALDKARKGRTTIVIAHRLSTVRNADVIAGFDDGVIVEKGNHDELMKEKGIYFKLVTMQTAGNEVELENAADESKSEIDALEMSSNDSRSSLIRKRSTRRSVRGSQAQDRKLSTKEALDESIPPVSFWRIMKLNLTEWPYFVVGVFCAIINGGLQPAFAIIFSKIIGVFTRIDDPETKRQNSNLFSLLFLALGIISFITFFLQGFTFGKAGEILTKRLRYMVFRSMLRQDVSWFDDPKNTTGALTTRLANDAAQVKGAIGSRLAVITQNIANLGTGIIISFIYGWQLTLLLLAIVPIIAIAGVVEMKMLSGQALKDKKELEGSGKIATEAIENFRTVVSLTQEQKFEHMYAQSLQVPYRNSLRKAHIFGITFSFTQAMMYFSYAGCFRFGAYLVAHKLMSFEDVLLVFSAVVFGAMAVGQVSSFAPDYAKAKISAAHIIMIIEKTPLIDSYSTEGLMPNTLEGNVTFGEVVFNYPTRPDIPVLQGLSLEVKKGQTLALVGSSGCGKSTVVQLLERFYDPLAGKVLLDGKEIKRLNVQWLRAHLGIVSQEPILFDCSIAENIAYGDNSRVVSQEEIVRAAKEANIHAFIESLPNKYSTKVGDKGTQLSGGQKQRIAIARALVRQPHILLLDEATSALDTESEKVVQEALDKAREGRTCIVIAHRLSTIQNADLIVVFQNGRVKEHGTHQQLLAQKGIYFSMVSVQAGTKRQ

[50] = Selectivity ratio, ratio of Ki for CatS (unknown origin) to Ki for Cal1 (unknown origin); details: Homo sapiens
[51] = Volume of distribution at steady state in Sprague-Dawley rat at 2 mg/kg, iv; type: ADME, organism-based; details: in vivo, read-out: Vdss
[52] = species: Homo sapiens; assay: Selectivity ratio, ratio of Ki for CatB (unknown origin) to Ki for Cal1 (unknown origin)
[53] = species: Homo sapiens; assay: Selectivity ratio, ratio of Ki for CatL (unknown origin) to Ki for Cal1 (unknown origin)
[54] = Plasma clearance in CD-1 mouse at 2 mg/kg, iv; type: ADME, organism-based
[55] = test system: Hippocampus; assay: Inhibition of amyloid beta oligomer-induced reduction of synaptic transmission in rat hippocampal slices assessed as increase in glutamatergic synaptic strength at 100 nM; type: functional, tissue-based
[56] = Elimination half life in cynomolgus monkey at 3 mg/kg, po; type: ADME, organism-based, Macaca fascicularis; details: in vivo, read-out: beta t1/2 (converted)
[57] = molecular target: T2, Calpain-1 catalytic subunit (Homo sapiens, UniProt P07384); assay: Inhibition of Cal1 (unknown origin)
T2 sequence (P07384 whole entry): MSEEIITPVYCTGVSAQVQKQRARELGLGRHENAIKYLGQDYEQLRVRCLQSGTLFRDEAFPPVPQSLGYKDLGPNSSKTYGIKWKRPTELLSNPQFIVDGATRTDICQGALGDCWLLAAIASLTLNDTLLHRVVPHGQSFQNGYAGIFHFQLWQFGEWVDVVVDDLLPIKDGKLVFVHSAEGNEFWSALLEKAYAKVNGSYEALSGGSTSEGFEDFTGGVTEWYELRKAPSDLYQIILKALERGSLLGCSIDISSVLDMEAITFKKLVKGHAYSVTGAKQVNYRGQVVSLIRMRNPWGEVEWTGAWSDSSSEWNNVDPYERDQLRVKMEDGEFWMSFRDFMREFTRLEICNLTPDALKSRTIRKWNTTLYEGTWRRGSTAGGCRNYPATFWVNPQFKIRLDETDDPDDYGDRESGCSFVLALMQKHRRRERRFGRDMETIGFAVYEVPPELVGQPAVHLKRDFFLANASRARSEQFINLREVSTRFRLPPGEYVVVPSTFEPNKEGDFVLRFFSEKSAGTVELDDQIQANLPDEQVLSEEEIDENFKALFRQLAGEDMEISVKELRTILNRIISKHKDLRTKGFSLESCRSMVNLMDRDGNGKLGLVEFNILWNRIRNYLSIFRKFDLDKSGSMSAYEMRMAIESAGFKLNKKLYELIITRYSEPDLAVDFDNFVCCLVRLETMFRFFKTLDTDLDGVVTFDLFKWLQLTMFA

## O=C(NC1CC1)C(=O)C(Cc1ccccc1)NC(=O)[C@H]1CCC(=O)N1Cc1ccccc1 (stereo partly specified)
[1]
  Papp: 9.4 ×10⁻⁶ cm/s
[2]
  half-life: 2.3 h
[3]
  Cmax: 980 ng/mL
[4]
  AUC(0-inf): 220 ng·h/mL
[5]
  Stability: Stable
[6]
  AUC(0-inf): 1910 ng·h/mL
[7]
  bioavailability: 83.1%
[8]
  Stability: Stable
[9]
  microsomal CLint: < 23 µL/min/mg
[10]
  bioavailability: 93.5%
[11]
  AUC(0-inf): 510 ng·h/mL
[12]
  Stability: Stable
[13]
  efflux ratio: 0.9
[14]
  Cmax: 530 ng/mL
[15]
  AUC(0-inf): 15400 ng·h/mL
[16]
  AUC(0-inf): 14500 ng·h/mL
[17]
  bioavailability: 14.3%
[18]
  half-life: 4.8 h
[19]
  Selectivity ratio: 74
[20]
  AUC(0-inf): 1930 ng·h/mL
[21]
  Stability: Stable
[22]
  half-life: 1.7 h
[23]
  clearance: 33 mL/min/kg
[24]
  Stability: Stable
[25]
  Cmax: 98 ng/mL
[26]
  half-life: 5 h
[27]
  half-life: 6 h
[28]
  clearance: 10.2 mL/min/kg
[29]
  AUC(0-inf): 1510 ng·h/mL
[30]
  half-life: 6.6 h
[31]
  microsomal CLint: 28 µL/min/mg
[32]
  clearance: 17.3 mL/min/kg
[33]
  Stability: Stable
[34]
  half-life: 5.1 h
[35]
  Vd: 0.6 L/kg
[36]
  Stability: Stable
[37]
  fraction unbound: 0.3
[38]
  AUC(0-inf): 1820 ng·h/mL
[39]
  bioavailability: 99.6%
[40]
  IC50: 385 nM
[41]
  Stability: Stable
[42]
  microsomal CLint: < 23 µL/min/mg
[43]
  Stability: Stable
[44]
  Stability: Stable
[45]
  microsomal CLint: < 1 µL/min/mg
[46]
  Vd: 1 L/kg
[47]
  Cmax: 2300 ng/mL
[48]
  Vd: 1.8 L/kg
[49]
  efflux ratio: 10.5
[50]
  Selectivity ratio: > 100
[51]
  Vd: 3.4 L/kg
[52]
  Selectivity ratio: 42
[53]
  Selectivity ratio: 42
[54]
  clearance: 2.17 mL/min/kg
[55]
  inhibition: Active
[56]
  half-life: 1.3 h
[57]
  Ki: 130 nM

## O=C(NC1CC1)C(=O)C(Cc1ccccc1)NC(=O)[C@H]1CCC(=O)N1C1Cc2ccccc2C1 (stereo partly specified)
[9]
  microsomal CLint: 58 µL/min/mg
[31]
  microsomal CLint: 2 µL/min/mg
[45]
  microsomal CLint: 42 µL/min/mg
[57]
  Ki: 545 nM
